Data: patent US10350239B2, “Pharmaceutical composition for treating cancer comprising trypsinogen and/or chymotrypsinogen and an active agent selected from a selenium compound, a vanilloid compound and a cytoplasmic glycolysis reduction agent” (Propanc Pty Ltd, priority 2009, dated 2019)
One block for each compound: values may come before it.

Assays:
[1] = tested on: bFGF-induced angiogenesis; assay: AngioChamber assay (fibrous capsule wet weight); type: in vivo; conditions: female FvB mice, once daily Day 0-4, capsule excised Day 5, p<0.05
Text: The AngioChamber™ assay utilises the normal physiological process of wound healing, to promote fibrous capsule formation around an implanted chamber (Wood, J. M., Bold, G., Buchdunger, E., Cozens, R., et al. PTK787/ZK 222584, a Novel and Potent Inhibitor of Vascular Endothelial Growth Factor Tyrosine Kinases, Impairs Vascular Endothelial Growth Factor-Induced Responses and Tumour Growth After Oral Administration. Cancer Research, 60 (8):2178-2189 (2000)). The inclusion of Basic Fibroblast Growth Factor (bFGF) in the chamber supports the fibrouse capsule formation while inducing blood vessel development. […] The fibrous capsule around the chamber was removed and the wet weight recorded. […] The vascularised fibrous capsule that had formed around each chamber was carefully removed and the wet weight recorded immediately. Angiogenesis inhibition by Test Articles (%) was calculated using the following formula: % Inhibition=[(A−B)/(A−C)×100] where A is the mean capsule weight from mice with implanted AngioChambers™ containing growth factor and treated with Vehicle Control (Group 2), B is the mean capsule weight from mice with implanted AngioChambers™ containing growth factor and treated with Test Article (Groups 3-5), and C is the mean capsule weight from mice with implanted AngioChambers™ without growth factor and treated with Vehicle Control (Group 1). […]

[2] = Body weight in the AngioChamber study; type: in vivo; conditions: female FvB mice; Day 0 to Day 5; 60 mg/kg p.o. daily
Protocol: Body weight measurements were recorded for all animals on the first treatment day (Day 0) and then daily until the termination day of the study (Day 5).
Each animal's body weight was measured immediately prior to dosing. The volume of dosing solution administered to each animal was calculated and adjusted based on individual body weight.
All statistical calculations were performed using SigmaStat 3.0 (SPSS Australasia, North Sydney, NSW, Australia). A paired t-test was used to determine the significance in body weight change within a treatment group between Day 0 and the termination day of the study. […] Significant induction of the fibrous capsule formation by bFGF is considered to be essential to accept the study results. A One-Way Analysis of Variance (ANOVA) was performed on the capsule weight data at the end of the study. Where significant differences were found, All Pairwise Multiple Comparison and Multiple Comparison versus Control Group Procedures (Holm-Sidak Method) were performed. A p value of less than 0.05 was considered significant.

[3] = background statement; cited from earlier work
MIAPaCa-2 = assay: CellTiter-Blue cell growth assay, MIAPaCa-2; type: cell-based, human; conditions: 72 hours, Tables 11-13
Protocol: (§1) All the cell lines used in these studies were of human origin and were sourced from the American Type Culture Collection (ATCC) (Rockville, Md., USA).
(§2) The cells were cultured at 37° C. in a humidified cell culture incubator supplied with 95% air/5% CO2.
(§3) Test Article concentrations were tested in triplicates for each cell line. The CellTiter-Blue® Assay was carried out on all plates 72 hours post addition of Test Articles.
(§4) Following incubation of cells in Test Article-containing media, 10 μL of CellTiter-Blue® was added to each well and incubated with cells for up to 4 hours. Fluorescence was measured using a Spectramax Gemini XPS Fluorometer. All data were recorded and entered into Microsoft® Excel spreadsheets for interpretation.
(§5) Data collected from CellTiter-Blue® assays were plotted as dose response curves for IC50 determination, and as isobolograms to assess the type of interaction between Test Article combinations. For IC50 determinations, growth inhibition was calculated and plotted against compound concentration. In these plots, the X-axis (compound concentration) was represented in a logarithmic scale. IC50 concentration was calculated as the half maximal (50%) inhibitory concentration (IC) for each compound using GraphPad Prism version 5.0 for Mac OSX (GraphPad Software, San Diego Calif., USA).

A549 = assay: CellTiter-Blue cell growth assay, A549; type: cell-based, human; conditions: A-549; 72 hours; Tables 11-13
Protocol: as §1, §2, §3, §4, §5

HCT-15 = assay: CellTiter-Blue cell growth assay, HCT-15; type: cell-based, human; conditions: 72 hours, Tables 11-13
Protocol: as §1, §2, §3, §4, §5

A-549 cells = assay: Isobolographic combination assay, A-549 cells; type: cell-based, human
Protocol: (§6) The dose-response relations of agents can be used to construct a model giving the expected effect of a combination. The combination of drugs A and B shall be termed (da,db) where da and db are doses of A and B. Effect is treated as a mathematical function, E(da,db). E is sometimes expressed as a fractional effect, then the survival fraction is S: S=1-E. Finally, Da and Db are doses of drugs A and B given separately, which produce an isoeffective response with the combination. Isoboles (iso-effect curves) can be constructed based on the assumption that there is no interaction between the drugs used in combination. The combination (da, db) is represented by a point on a graph that has axes representing doses of the individual drugs. […]
(§7) This ratio is also called g value and it used to determine the type of interaction. In this case the calculated isobole is concave. […]
(§8) The initial concentrations for each compound in each cell line were decided based on the calculated IC50 in a way that the IC50 for each drug fell within the concentration in the dilution series. […]
as §4, with “interpretation. […]” for “interpretation.”

HCT-15 cells = assay: Isobolographic combination assay, HCT-15 cells; type: cell-based, human
Protocol: as §6, §7, §8
as §4, with “interpretation. […]” for “interpretation.”

MIAPaCa-2 cells = assay: Isobolographic combination assay, MIAPaCa-2 cells; type: cell-based, human
Protocol: as §6, §7, §8
as §4, with “interpretation. […]” for “interpretation.”

[4] = tested on: A-549, HCT-15 and MIAPaCa-2 cells; assay: CellTiter-Blue cell growth assay, three selected cell lines together; type: cell-based, human
Protocol: as §1, §2, §3, §4, §5

Compound: CNC(=O)c1cc(Oc2ccc(NC(=O)Nc3ccc(Cl)c(C(F)(F)F)c3)cc2)ccn1 [Sorafenib]
- angiogenesis (capsule wet weight) compared to the Induction Control (Vehicle Control with bFGF) ([1]; JBp1 and JBp1-DCM i.p., Sorafenib 60 mg/kg p.o.): significant reduction in angiogenesis
- angiogenesis (capsule wet weight) compared with JBp1 monotherapy [1]: significantly reduced angiogenesis
- body weight loss at termination of the study [2]: 5.6%

Compound: C[Se]CC[C@H](N)C(=O)O [selenomethionine]
- toxic level (organic forms of selenium) [3]: about 3500 micrograms daily

- IC50 values (MIAPaCa-2): 280 µg/mL
- IC50 values (A549): 230 µg/mL
- IC50 values (HCT-15): 410 µg/mL
- IC50 values, range over all three cell lines [4]: 230 to 410 µg/mL
Compound: Trypsinogen
- Maximum Inhibition (%) (MIAPaCa-2): 82.3%
- Maximum Inhibition (%) (A549): 75.7%
- Maximum Inhibition (%) (HCT-15): 77.2%
- type of interaction in combination with chymotrypsinogen (isobolographic, in words) (A-549 cells): wide-range of synergistic interaction
- type of interaction in combination with α-amylase (isobolographic, in words) (A-549 cells): narrow-range type
- type of interaction in combination with chymotrypsinogen (isobolographic, in words) (HCT-15 cells): non-antagonistic interaction
- type of interaction in combination with α-amylase (isobolographic, in words) (HCT-15 cells): non-synergistic interaction
- type of interaction in combination with chymotrypsinogen (isobolographic, in words) (MIAPaCa-2 cells): wide-range of synergistic interaction
- type of interaction in combination with α-amylase (isobolographic, in words) (MIAPaCa-2 cells): wide-range type
